Tests used:
[1] = LogD7.4 determination of xenopeptides (octanol-water); assay type: physicochemical; details: shake-flask n-octanol/HEPES buffer (20 mM, pH 7.4); 10 μL of 10 mg/mL xenopeptide in water + 90 μL buffer + 100 μL n-octanol; shaken 1400 rpm 24 h; centrifuged, 4 °C 1 h; HPLC, extinction 280 nm; log(Aoctanol/Awater); triplicate
Method: LogD7.4 determination of xenopeptides
Octanol-water partition coefficient D at pH 7.4 (logD7.4) was determined as previously reported with slight modification.5
Scheme S3 illustrates the logD7.4 determination procedures of all xenopeptides in this study. Briefly, 10 μL of 10 mg/mL xenopeptides in water were diluted with 90 μL HEPES buffer (20 mM, pH 7.4) in 1.5 mL reaction tubes. 100 μL n-octanol were then added. The tubes were shaken at 1400 rpm for 24 h. Afterwards, the tubes were centrifuged followed by storage at 4 °C for 1 h to separate n-octanol and water phases. 70 μL of each phase were injected for HPLC analysis. The extinction at 280 nm was monitored and the peak area (A) of the xenopeptides was calculated. LogD7.4 was calculated as log(Aoctanol / Awater).
All experiments were performed in triplicate. […]
Cas9 RNP/ssDNA nanocarriers. […]

[2] = Characterization of Cas9 RNP nanocarriers by DLS (size, PDI, zeta potential); assay type: physicochemical; details: N/P ratio 24, RNP 75 nM, three technical replicates; for PDI of Cas9 RNP nanocarriers / hydrodynamic size (z-average) of Cas9 RNP nanocarriers: DLS, HBG pH 7.4, mean ± SD; for zeta potential of Cas9 RNP nanocarriers: electrophoretic light scattering, HEPES 20 mM pH 7.4, mean ± SD
Method: Preparation of Cas9 RNP and Cas9 RNP/ssDNA nanocarriers
Cas9 protein was expressed, purified, and stored at -80 °C in storage buffer (20 mM HEPES, 200 mM KCl, 10 mM MgCl 2, 1 mM DTT, 30 % glycerol) as described previously.6 Cas9 protein and sgRNA (dissolved in RNase-free water) were mixed at 1:1 molar ratio and incubated at RT for 15 min to form the Cas9/sgRNA ribonucleoprotein (RNP) complexes. Afterwards, Cas9 RNP was added into the xenopeptide solution in HBG buffer (pH 7.4) at an N/P (nitrogen t o phosphate of sgRNA) ratio of 24. The solution was mixed thoroughly by pipetting up and down and incubated at RT for another 15 min to generate the final Cas9 RNP nanocarriers. In case of preparing Cas9 RNP/ssDNA nanocarriers for HDR experiments, Cas9 RNP was mixed with ssDNA HDR template at 1:1 molar ratio and then added into the xenopeptide solution in HBG buffer (pH 7.4) at an N/P (nitrogen to phosphate of sgRNA plus ssDNA) ratio of 12. The solution was mixed and incubated for 40 min to generate the Cas9 RNP/ssDNA nanocarriers.
Characterization of Cas9 RNP nanocarriers
The hydrodynamic size, PDI and zeta potential of Cas9 RNP nanocarriers were measured by DLS using a Zetasizer Nano ZS (Malvern Instruments, UK). Cas9 RNP nanocarriers were prepared as desc ribed above. The hydrodynamic size of Cas9 RNP nanocarriers containing 1.25 μg Cas9 protein and 0.25 μg sgRNA (Cas9/sgRNA, 1:1 molar ratio) in 100 μL HBG was measured.
Afterwards, 700 μL HEPES buffer (20 mM, pH 7.4) were added to each sample and the soluti on was mixed for the zeta potential measurement. For the dilution stability study, Cas9 RNP nanocarriers were prepared at an RNP concentration of 375 nM (6.25 μg Cas9 protein and 1.25 μg sgRNA) and then diluted with HBG buffer to a series of RNP concentrat ions (75, 50, 25, 10, 5, 2.5, 1, 0.5, and 0.1 nM). The size and zeta potential of diluted samples were measured as described above.

HeLa eGFP/tub cells = experiment: eGFP knockout study by Cas9 RNP nanocarriers, flow cytometry; assay type: cell-based; details: 1 nM RNP, 48 h treatment, N/P 24
Method: HeLa WT, HeLa eGFP/tub, HeLa GFPd2 (destabilized eGFP), CT26 eGFP/luc and N2a eGFP/luc cells were grown in DMEM medium supplemented with 10 % FBS, 100 U/mL penicillin, and 100 μg/mL streptomycin. The cells were cultured in ventilated flasks in the cell incubator at 37 °C and 5 % CO2 in a humidified atmosphere. The cells were passaged at a confluency of […]
Cells were harvested and resuspended in 600 μL of FACS buffer (PBS buffer containing 10 % FBS). The samples were ana-lyzed by flow cytometry on a CytoFLEX S flow cytometer (Beckman Coulter, CA, USA). For eGFP knockout and cellular uptake experiments, 0.6 μL of 1 μg/μL DAPI was added to each sample for differentiating live and dead cells before the measurement. The DAPI signal and BFP fluorescence were detected with 405 nm excitation and 450 nm emission. The eGFP and ATTO488 fluorescence was assayed with 488 nm excitation and 530 nm emission. The ATTO647N fluorescence was assayed with 640 nm excitation and 670 nm emission. Ten thousand of isolated live cells were counted and evaluated. The data were analyzed using FlowJo 7.6.5 by FlowJo, LLC (Becton, Dickinson and Company, USA). […]
Endosomal escape of Cas9 RNP nanocarriers […]
Next, the […]
cells were washed twice with PBS and then fixed with 4 % PFA at RT for 40 min. Afterwards, the cells were washed and incubated with 2 µg/mL DAPI (for staining cell nuclei) for 30 min. Then, the staining solution was removed and 300 μL fresh PBS were added. The slides w ere stored at 4 °C in the dark until the measurement. […]
Then, the image was conv erted into 8-bit type. The mRuby3/gal8 spots were further determined by Threshold tool, and the number of the spots in the cell cytosol per cell were counted by Analyze Particles tool.
One day prior to the treatments, HeLa eGFP/tub cell s were seeded into 96 -well plates at a density of 5000 cells/well. On the next day, the medium was replaced with 80 μL of fresh medium. 20 μL of Cas9 RNP nanocarriers were added to each well resulting in a series of concentrations of RNP (100, 75, 50, 25, 10, 5, 2.5, 1, 0.5, and 0.1 nM). Lipofectamine CRISPRMAX was tested at the same concentrations of RNP with the preparation procedures as recommended by the manufacturer. The cells were incubated for 48 h. Afterwards, the cells were trypsinized and transfer red to 24-well plates, and incubated for another 72 h. Then, the cells were harvested and prepared for flow cytometry analysis. All experiments were performed in triplicate. eGFP to BFP conversion (HDR) study
One day prior to the treatments, HeLa GFPd2 cel ls were seeded into 96 -well plates at a density of 5000 cells/well. On the next day, the medium was replaced with 80 μL of fresh medium. 20 μL of Cas9 RNP/ssDNA nanocarriers containing different molar ratios of RNP/ssDNA were added to each well resulting i n a series of concentrations of RNP (100, 75, 50, 25, 10, 5, 2.5, 1, 0.5, and 0.1 nM). Lipofectamine CRISPRMAX was tested at the same concentrations of RNP and ssDNA with the prepara-tion procedures as recommended by the manufacturer. The cells were incubat ed for 48 h. Afterwards, the cells were trypsinized and transferred to 24 -well plates, and incubated for another 72 h. Then, the cells were harvested and prepared for flow cytom-etry analysis. […]
Half maximal effective concentration (EC50) values were calculated by GraphPad prism 5. […] All other data were analyzed with GraphPad prism 5 and presented as arithmetic mean ± standard deviation (SD) of at least triplicates. […]

Compound | logD [1] | PDI of Cas9 RNP nanocarriers [2] | hydrodynamic size (z-average) of Cas9 RNP nanocarriers [2] | zeta potential of Cas9 RNP nanocarriers [2] | eGFP knockout (HeLa eGFP/tub cells)
CCCCC/C=C\C/C=C\CCCCCCCC(=O)NCCCC[C@H](NC(=O)CCCCCCC/C=C\C/C=C\CCCCC)C(=O)NCCCC[C@H](NC(=O)[C@H](Cc1c[nH]cn1)NC(=O)CCC(=O)NCCNCCNCCNCCNC(=O)[C@H](Cc1c[nH]cn1)NC(=O)[C@H](Cc1ccc(O)cc1)NC(=O)[C@H](Cc1ccc(O)cc1)NC(=O)[C@H](Cc1ccc(O)cc1)NC(=O)[C@@H](N)CCCCN=[N+]=[N-])C(=O)N[C@@H](Cc1c[nH]cn1)C(=O)NCCNCCNCCNCCNC(=O)CCC(=O)N[C@@H](Cc1c[nH]cn1)C(=O)N[C@@H](Cc1ccc(O)cc1)C(=O)N[C@@H](Cc1ccc(O)cc1)C(=O)N[C@@H](Cc1ccc(O)cc1)C(=O)O [Stp1-H-LinA] | – | – | – | – | ~80%
CCCCC/C=C\C/C=C\CCCCCCCC(=O)NCCCC[C@H](NC(=O)CCCCCCC/C=C\C/C=C\CCCCC)C(=O)NCCCC[C@H](NC(=O)CNCC(=O)NCCNCCNCCNCCNC(=O)[C@H](Cc1ccc(O)cc1)NC(=O)[C@H](Cc1ccc(O)cc1)NC(=O)[C@H](Cc1ccc(O)cc1)NC(=O)[C@@H](N)CCCCN=[N+]=[N-])C(=O)NCCNCCNCCNCCNC(=O)CNCC(=O)N[C@@H](Cc1ccc(O)cc1)C(=O)N[C@@H](Cc1ccc(O)cc1)C(=O)N[C@@H](Cc1ccc(O)cc1)C(=O)O [IDAtp1-LinA] | -1.11 | – | – | – | –
CCCCC/C=C\C/C=C\CCCCCCCC(=O)NCCCC[C@H](NC(=O)CCCCCCC/C=C\C/C=C\CCCCC)C(=O)NCCCC[C@H](NC(=O)CCCC(=O)NCCCNCCNCCCNC(=O)[C@H](Cc1ccc(O)cc1)NC(=O)[C@H](Cc1ccc(O)cc1)NC(=O)[C@H](Cc1ccc(O)cc1)NC(=O)[C@@H](N)CCCCN=[N+]=[N-])C(=O)NCCCNCCNCCCNC(=O)CCCC(=O)N[C@@H](Cc1ccc(O)cc1)C(=O)N[C@@H](Cc1ccc(O)cc1)C(=O)N[C@@H](Cc1ccc(O)cc1)C(=O)O [GEIPA1-LinA] | -0.33 | – | – | – | –

Continued, in another order:

logD [1] | PDI of Cas9 RNP nanocarriers [2] | hydrodynamic size (z-average) of Cas9 RNP nanocarriers [2] | zeta potential of Cas9 RNP nanocarriers [2] | Compound | eGFP knockout (HeLa eGFP/tub cells)
-1.51 | 0.19 ± 0.02 | 189.1 ± 4.2 nm | 13.7 ± 1.2 mV | CCCCC/C=C\C/C=C\CCCCCCCC(=O)NCCCC[C@H](NC(=O)CCCCCCC/C=C\C/C=C\CCCCC)C(=O)NCCCC[C@H](NC(=O)[C@H](Cc1c[nH]cn1)NC(=O)CNCC(=O)NCCNCCNCCNCCNC(=O)[C@H](Cc1c[nH]cn1)NC(=O)[C@H](Cc1ccc(O)cc1)NC(=O)[C@H](Cc1ccc(O)cc1)NC(=O)[C@H](Cc1ccc(O)cc1)NC(=O)[C@@H](N)CCCCN=[N+]=[N-])C(=O)N[C@@H](Cc1c[nH]cn1)C(=O)NCCNCCNCCNCCNC(=O)CNCC(=O)N[C@@H](Cc1c[nH]cn1)C(=O)N[C@@H](Cc1ccc(O)cc1)C(=O)N[C@@H](Cc1ccc(O)cc1)C(=O)N[C@@H](Cc1ccc(O)cc1)C(=O)O [IDAtp1-H-LinA] | –
– | 0.28 ± 0.02 | 179.8 ± 5.3 nm | 13.4 ± 2.1 mV | K(N3)-C-Y3-GEIPA2-K(K(OHSteA)2)-GEIPA2-Y3-C [GEIPA2-C-OHSteA, lipid-modified xenopeptide, X2-C-OHSteA architecture, artificial amino acid GEIPA] | –

Reference: article PMC10360056, “Chemical Evolution of Amphiphilic Xenopeptides for Potentiated Cas9 Ribonucleoprotein Delivery” (Journal of the American Chemical Society, 2023)
